# Experimental data published in the supplement of paper PMC10307832.
# Assays:
# Experiment in all cases: relative viability (nuclei count vs DMSO), 5 days (fraction); higher = more cells survive
# [1] = compound: C1COCCN1C2=NC(=NC3=C2OC4=C3C=CC=N4)C5=CC(=CC=C5)NC(=O)C6=CN=C(C=C6)N + CCNC(=O)c1noc(-c2cc(C(C)C)c(O)cc2O)c1-c1ccc(CN2CCOCC2)cc1 [Luminespib] (partner 0.01 µM)
# Outline: (§1)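 A single step with final 0.05% Triton X-100, 1% formaldehyde and 1 ug/ml Hoechst fixed the cells and stained nuclei 5 days after treatment. Lung cancer cell lines in 1536-well plates had been treated by pin tool the day after seeding with one drug alone or a fixed anchor-drug dose plus five library-drug doses (not always all listed) in √10 steps, and nuclei were counted on 4× images. Relative viability is the ratio of nuclei in treated wells to nuclei in vehicle wells, taken as the median of duplicate plates.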
# [2] = compound: Nc1ccccc1NC(=O)c1ccc(CNC(=O)OCc2cccnc2)cc1 [Entinostat] + CC(=O)Nc1cccc(-n2c(=O)n(C3CC3)c(=O)c3c(Nc4ccc(I)cc4F)n(C)c(=O)c(C)c32)c1 [Trametinib] (partner 0.02 µM)
# Outline: as §1
# [3] = compound: C1COCCN1C2=NC(=NC3=C2OC4=C3C=CC=N4)C5=CC(=CC=C5)NC(=O)C6=CN=C(C=C6)N + CS(=O)(=O)N1CCN(Cc2cc3nc(-c4cccc5[nH]ncc45)nc(N4CCOCC4)c3s2)CC1 [Pictilisib] (partner 1 µM)
# Outline: as §1
# [4] = compound: C1COCCN1C2=NC(=NC3=C2OC4=C3C=CC=N4)C5=CC(=CC=C5)NC(=O)C6=CN=C(C=C6)N + CC(C)C[C@H](NC(=O)[C@H](Cc1ccccc1)NC(=O)c1cnccn1)B(O)O [Bortezomib] (partner 0.002 µM)
# Outline: as §1
Cell Line,relative viability ([1]; first compound 0.02 µM),relative viability ([1]; first compound 0.06325 µM),relative viability ([1]; first compound 0.2 µM),relative viability ([1]; first compound 0.6325 µM),relative viability ([1]; first compound 2 µM),relative viability ([2]; first compound 0.02 µM),relative viability ([2]; first compound 0.06325 µM),relative viability ([2]; first compound 0.2 µM),relative viability ([2]; first compound 0.6325 µM),relative viability ([2]; first compound 2 µM),relative viability ([3]; first compound 0.02 µM),relative viability ([3]; first compound 0.06325 µM),relative viability ([3]; first compound 0.2 µM),relative viability ([3]; first compound 0.6325 µM),relative viability ([3]; first compound 2 µM),relative viability ([4]; first compound 0.02 µM),relative viability ([4]; first compound 0.06325 µM),relative viability ([4]; first compound 0.2 µM),relative viability ([4]; first compound 0.6325 µM),relative viability ([4]; first compound 2 µM)
SW 900,0.203,0.166,0.172,0.152,0.174,0.793,0.752,0.614,0.766,0.347,–,–,–,–,–,–,–,–,–,–
NCI-H1944,0.728,0.786,0.665,0.555,0.553,0.387,0.43,0.333,0.265,0.232,0.358,0.365,0.356,0.37,0.316,–,–,–,–,–
NCI-H838,0.338,0.279,0.264,0.303,0.227,0.531,0.548,0.626,0.395,0.167,0.481,0.446,0.45,0.362,0.311,0.708,0.872,0.564,0.659,0.469
NCI-H1651,0.949,0.992,0.999,0.856,0.557,0.931,0.844,0.844,0.745,0.606,0.621,0.608,0.68,0.567,0.31,1.03,0.998,0.946,0.921,0.743
HCC-827,0.634,0.557,0.65,0.586,0.456,0.516,0.474,0.406,0.338,0.203,0.99,1.1,1.12,0.986,0.935,1.07,1.07,1.17,1.15,1.08
HCC-366,–,–,–,–,–,0.42,0.306,0.253,0.218,0.0673,0.0246,0.144,0.107,0.107,0.204,1.43,1.23,1.09,1.11,0.525
HARA,0.562,0.762,0.843,0.79,0.335,0.903,0.983,0.696,0.647,0.48,0.273,0.319,0.329,0.326,0.291,1.14,1.35,1.24,1,0.875
NCI-H441,0.284,0.314,0.324,0.501,0.25,0.498,0.687,0.568,0.227,0.147,0.564,0.585,0.427,0.447,0.345,0.342,0.638,0.565,0.648,0.274
NCI-H1299,–,–,–,–,–,–,–,–,–,–,0.866,0.943,0.808,0.791,0.442,1.06,1.05,1.02,1.03,0.798
